Here are results for six compounds from paper PMC6108829 (Environmental Health Perspectives, 2018).

Counter-ions that a name gives are not always drawn.

Data set [1] in a line: Glucuronidation kinetics in pooled human liver microsomes (HPLC-UV). Particulars: human, pH 7.4. Here is the method:
(§1) Pooled human liver microsomes ( 20mg/mL ) and pooled human intestinal microsomes ( 20mg/mL ) were from BD Biosciences. We first placed the reaction mixtures for 30 min on ice and then incubated them for 5 min at 37°C. The addition of uridine 5'-diphospho-glucuronic acid (Sigma-Aldrich) to a final concentration of 5 mM started the reaction. For the enzyme reactions, we used a temperature of 37°C; the incubation times differed, subject to the BP and microsome type regarded (Table 1). We terminated the glucuronidation reactions with the addition of 10μL perchloric acid (Merck). In the following step, we put the samples on ice for 15 min, centrifuged at 16,000×g for 10 min, and analyzed the supernatants using HPLC-UV.
(§2) We conducted the HPLC-UV analysis on an Agilent 1,100 series HPLC system (Agilent Technologies). For this, we injected 10μL of each sample onto a Poroshell 120 EC-C18 column ( 4.6×100mm , 2.7μm , Agilent Technologies) maintained at 40°C. The mobile phases were 0.1% formic acid (A) and acetonitrile (B). The elution of different BPs consisted of a linear gradient (see Table 2). We further analyzed the results with the GraphPad Prism software (version 5.04; GraphPad Software Inc.,) and selected the most suitable kinetic model (Michaelis-Menten or substrate inhibition, Equations 3 and 4), based on the curve fitting and the shape of the Eadie-Hofstee plots (see Figure S2).
(§3) Michaelis-Menten equation: (3) v=vmax[S]/Km+[S]
(§4) Substrate inhibition equation: (4) v=vmax[S]/Km+[S](1+[S]/Ksi )
In general terms: Microsomes from liver hold many membrane-bound enzymes, among them those of drug oxidation.

Another data set relates to human liver microsomes. The data set is described as above. Particulars: for glucuronidation compared with the other analogs: at lower, physiologically relevant substrate concentrations, small intestine and liver (Figure 3B); for Hepatic glucuronidation vmax: in vitro value scaled with 32 mg protein/g liver, BPS: uncalibrated model. Here is the method: as §1, §2, §3, §4

A short description of data set [2]: Glucuronidation kinetics in pooled human intestinal microsomes (HPLC-UV). To be noted: human, pooled human intestinal microsomes, pH 7.4. Here is the method: as §1, §2, §3, §4
Data set [3] concerns human intestinal microsomes. Described as above. Particulars: for Glucuronidation in enterocytes vmax - used in basic model: scaled with 4.29 mg protein/kg BW; for Glucuronidation in enterocytes Ksi: substrate-inhibition kinetics. Here is the method:
as §1, §2, §3, §4

Data set [4] can be described thus: Margin of exposure (MOE = EC50/Cmax) back-of-the-envelope calculation. More on the design: species or system human.
In the next data set the target is estrogen receptor. Set-up: method as in Kitamura et al. 2005. To be noted: ref Kitamura et al. 2005, cited from earlier work; for EC50: estrogenic potency.
On the set-up of data set [5]: method as in Oh et al. (2018). To be noted: ref Oh et al. (2018); cited from earlier work.
The conditions of data set [6]: cited from earlier work; for logPow: ref Choi and Lee 2017; for pKa: ref SPARC 2011.
For data set [7] the following is noted: in vivo; cited from earlier work.
The subject of a further data set is estrogen receptors. Set-up: method as in Kitamura et al. 2005; Stossi et al. 2014. Particulars: ref Kitamura et al. 2005; Stossi et al. 2014; cited from earlier work.
On the set-up of data set [8]: method as in Dumont et al. 2011. Particulars: third subject (oldest volunteer); ref Dumont et al. 2011; cited from earlier work.
The conditions of data set [9]: mouse, in vivo; cited from earlier work.
[10] abbreviates: EC50 (Kitamura et al. 2005)/highest Cmax of basic PBPK model (Table 9).

As usually defined, the Km is the concentration of substrate that gives half-maximal velocity. As a reminder, the EC50 is the concentration at which the effect is half-maximal. Usually pKa stands for the pH at which an ionisable group is half protonated. Regarding `O=S(=O)(c1ccc(O)cc1)c1ccc(O)cc1` [BPS, bisphenol S], in [1], the Km worked out at 285 µM. Also, in the data set with human liver microsomes, the “glucuronidation compared with the other analogs” value is on record as “least effective” and the Hepatic glucuronidation vmax is reported as 26,500 nmol/h/g liver. The Michaelis constant (Km) in data set [2] is 354 µM. In [3], the “Glucuronidation in enterocytes vmax - used in basic model” value (“Glucuronidation in enterocytes vmax” for short) came out at 563 nmol/h/g bw and the “Glucuronidation in enterocytes Ksi” value is 711,000 nM. For the same compound, the MOE in serum in data set [4] (setting [10]) is recorded as 2,440. Moreover, on estrogen receptor, the EC50 was 1100 nM. Besides, in [5], the “half-life, times longer than the half-life of BPA” value is 2.7 times. Also, in data set [6], the logPow is reported as 1.7–2.1 and the pKa is recorded as about 8.2.

In the case of `Oc1ccc(Cc2ccc(O)cc2)cc1` [BPF, bisphenol F], the Km in data set [1] came to 17.9 µM. The Hepatic glucuronidation vmax in the data set on human liver microsomes is recorded as 3,600 nmol/h/g liver. Moreover, in data set [2], the Michaelis constant (Km) was 57 µM. In [3], the “Glucuronidation in enterocytes vmax” value is on record as 462 nmol/h/g bw and the “Glucuronidation in enterocytes Ksi” value is reported as 605,000 nM. For the same compound, at estrogen receptor, the 50% effective concentration (EC50) is 1000 nM. Also, the pKa in [6] is given as about 7.6.

A word on the Cmax: it is the highest concentration seen after dosing. Take `CC(C)(c1ccc(O)cc1)c1ccc(O[C@@H]2O[C@H](C(=O)O)[C@@H](O)[C@H](O)[C@H]2O)cc1` [BPA-g, BPA glucuronide]: in data set [7], the “AUC, mean (range), measured” value was 6.66 (5.52–8.34) nM*h for 1.5 h and the maximum concentration (Cmax) was 6.48 nM.

Turning to `Oc1ccc(C(c2ccc(O)cc2)(C(F)(F)F)C(F)(F)F)cc1` [BPAF, bisphenol AF], in [1] (pooled human liver microsomes), the Michaelis constant (Km) amounted to 4.21 µM. In addition, in the data set on human liver microsomes, the “glucuronidation compared with the other analogs” value is “most effective” and the Hepatic glucuronidation vmax is on record as 5,660 nmol/h/g liver. Moreover, the “Hepatic glucuronidation Ksi” value with human liver microsomes (substrate-inhibition kinetics) is listed as 219,000 nM. In data set [2], the Km amounted to 1.83 µM. Further, in [3], the “Glucuronidation in enterocytes vmax” value was determined as 107 nmol/h/g bw and the “Glucuronidation in enterocytes Ksi” value is listed as 82,200 nM. The “MOE in serum of females of childbearing age” value in data set [4] (2D-MC analysis, P95/P95) is on record as 1,860. For the same compound, in [4] (setting [10]), the MOE in gonads is recorded as 1,810. In addition, the “estrogenic potency, times higher than BPA” value with estrogen receptor (from EC50 values) is listed as 13 times. Moreover, the “estrogenic potency, times higher than the potency of BPA” value in the data set on estrogen receptors is 7 to 13 times. Besides, in [6], the logPow is on record as 2.8 to 4.8 and the pKa is about 9.2.

On to `O=S(=O)(O)Oc1ccc(Cc2ccc(O)cc2)cc1` [BPF-s], for which the “share as major metabolite” value in [8] was 75%.

As to `CC(C)(c1ccc(O)cc1)c1ccc(OS(=O)(=O)O)cc1` [BPA-s, BPA sulfate], in [7], the “AUC, mean (range), measured” value was 3.61 (2.60–4.52) nM*h for 1.5 h and the Cmax is 4.22 nM. Moreover, the “share of metabolites present in plasma” value in data set [9] is 0.5–4.8%.
